Laboratory results as given in PMC1976805, “Preclinical pharmacokinetics of benznidazole” (British Journal of Cancer, 1984).
Like-named read-outs stand apart in the source and are kept apart here.

Assays:
KHT tumour = settings: mice, cited from earlier work
plasma proteins [1] = test: Plasma protein binding, summary over species; type: in vivo; settings: mouse, sheep, dog, range over species studied
Description: (§1) Br. J. Cancer (1984), 50, 291-303 Preclinical pharmacokinetics of benznidazole P. Workman', R.A.S. White2, M.I. Walton', L.N. Owen2* & P.R. Twentyman' 1MRC Clinical Oncology and Radiotherapeutics Unit, MRC Centre, Hills Road, Cambridge CB2 2QH, and 2Department of Clinical Veterinary Medicine, University of Cambridge, Madingley Road, Cambridge CB3 OES, UK. […] We have investigated the detailed pharmacokinetics of benznidazole in mice, dogs and sheep to provide a data base for the estimation of doses required for chemosensitization in man. Pharmacokinetic behaviour was linear except at high doses in mice. Absorption was fairly rapid and bioavailability was complete following both i.p. administration in mice and oral administration in dogs. […] Although benznidazole is used quite widely in South America to treat patients with the trypanosomal infection Chagas' disease or with mucotaneous Leishmaniasis (Barclay et al., 1978; Cerisola et al., 1978; Coura et al., 1978; Fava et al., 1978), apart from our preliminary studies (White et al., 1982) the only published data on its pharmaco- kinetics are for human plasma concentrations measured by polarography (Raaflub & Ziegler, 1979; Raaflub, 1980). Here we describe the pharmacokinetics of benznidazole in the mouse, sheep and dog, as determined by high-performance liquid chromatography (HPLC). […]

[2] = Penetration into EMT6 and KHT mouse tumours; type: in vivo; settings: for steady-state concentration in tumour: multiple dose schedule
Description: (§2) Br. J. Cancer (1984), 50, 291-303 Preclinical pharmacokinetics of benznidazole P. Workman', R.A.S. White2, M.I. Walton', L.N. Owen2* & P.R. Twentyman' 1MRC Clinical Oncology and Radiotherapeutics Unit, MRC Centre, Hills Road, Cambridge CB2 2QH, and 2Department of Clinical Veterinary Medicine, University of Cambridge, Madingley Road, Cambridge CB3 OES, UK. […] We have investigated the detailed pharmacokinetics of benznidazole in mice, dogs and sheep to provide a data base for the estimation of doses required for chemosensitization in man. Pharmacokinetic behaviour was linear except at high doses in mice. Absorption was fairly rapid and bioavailability was complete following both i.p. administration in mice and oral administration in dogs. Elimination t4 values were longer than for MISO, being 90 min in mice, 4-5 h in sheep and 9-11 h in dogs. At doses giving linear kinetics, peak whole plasma concentrations per administered mgkg-1 were 0.75 jigml-1 for the i.p. route in mice and 1.8jugmlP' for the oral route in dogs. Though between 39 and 59% of plasma benznidazole was bound to protein, tissue penetration was generally good. Tissue/whole plasma ratios ranged from 59-99% for transplantable mouse tumours and from 14-70% for spontaneous dog neoplasms. Nervous tissue penetration was similar to that in tumours: brain/whole plasma ratios averaged between 61 and 76% in mice and 42% in dogs, while peripheral nerve/whole plasma ratios in dogs averaged 74%. Mean liver/whole plasma ratios were 42% and 71% in BALB/c and C3H/He mouse strains respectively. Only -5% of the administered dose was excreted unchanged in the urine, indicating the likelihood of extensive metabolism. […] Enhancement of CCNU response is likely to require circulating benznidazole concentrations of 10-30 pgml-1 and we predict that these will be obtained with oral doses of 6-20 mgkg- 1 in man. […] This enhancement, or chemosensitization, is usually greater than that seen in dose-limiting normal tissues, resulting in an improved therapeutic index. Because of the relatively high doses of MISO usually required for chemosensitization in mice (see above refs), and also because of its neurotoxicity in man (Dische et al., 1977), we have been interested in finding an improved chemosensitizer. […] The lipophilic ana- logue benznidazole (N-benzyl-(2-nitroimidazolyl) acetamide, Ro 07-1051; Radanil; Roche), the structure of which is shown in Figure 1, was selected for detailed study because of its ability to *Present address: Animal Health Trust, Small Animals Centre, Lanwades Park, Kennett, Newmarket, Suffolk CB8 7PN, UK. Correspondence: P. Workman. […] These findings have been confirmed independently by Siemann et al. (1983). Although benznidazole is used quite widely in South America to treat patients with the trypanosomal infection Chagas' disease or with mucotaneous Leishmaniasis (Barclay et al., 1978; Cerisola et al., 1978; Coura et al., 1978; Fava et al., 1978), apart from our preliminary studies (White et al., 1982) the only published data on its pharmaco- kinetics are for human plasma concentrations measured by polarography (Raaflub & Ziegler, 1979; Raaflub, 1980). Here we describe the pharmacokinetics of benznidazole in the mouse, sheep and dog, as determined by high-performance liquid chromatography (HPLC). […] The Macmillan Press Ltd., 1984 292 P. WORKMAN et al. particularly on plasma and tumour concentrations, have been used as a basis for the estimation of the benznidazole doses required in a Phase I trial of benznidazole plus CCNU, at present ongoing in our Unit. Materials and methods Animals and tumours Adult inbred male BALB/c mice were obtained from OLAC (Southern) Ltd. (Bicester, UK) and adult inbred C3H/He mice of both sexes from OLAC and our own breeding colony. Mice were housed in plastic cages on sawdust bedding made from soft white woods, and allowed laboratory chow and water ad lib. They were used at 20-35 g body wt.

plasma proteins [3] = test: Plasma protein binding in sheep (plasma ultrafiltrate); type: in vivo
Description: as §1

[4] = Whole plasma pharmacokinetics of benznidazole in mice (HPLC); type: in vivo, mouse; settings: for i.p. bioavailability (from AUC0-∞): 65 mg kg-1 i.p.; for half-life / Tmax: mouse; for Tmax: read-out: time of peak plasma concentration (converted)
Description: as §2

[5] = design: method as in earlier work; settings: patients, 5 mg kg-1 day-1 for 30 days, side effects incl. peripheral neuropathy observed in these studies, ref Barclay et al., 1978, Cerisola et al., Coura et al., Fava et al.; cited from earlier work
bovine serum albumin = tested on: bovine serum albumin; design: method as in Clarke & Wardman, cited in Watts et al., 1980; settings: ref Clarke & Wardman, cited in Watts et al., 1980; cited from earlier work
[6] = benznidazole 78 mg kg-1 i.p., ref Twentyman & Workman, 1983, Siemann et al.
[7] = EMT6 flank tumour, BALB/c, 45 min after 650 mg kg-1 i.p.
[8] = mice, 78 mg kg-1 i.p., discussion summary

fraction unbound (plasma proteins [1]): 0.41 to 0.61
concentration in tumour homogenate (Figure 2 chromatogram) [2, 7]: 13500 ng/mL
tumour concentration (Figure 2 chromatogram) [2, 7]: 54 µg/g
tumour/whole plasma ratio (s.e., n=5) ([2]; EMT6 flank, experiment b, 650 mg kg-1 i.p., 45 min): 58+8%
tumour/whole plasma ratio (s.e., n=5) ([2]; EMT6 flank, experiment b, 650 mg kg-1 i.p., 75 min): 70 + 5%
tumour/whole plasma ratio (s.e., n=5) ([2]; EMT6 flank, experiment b, 650 mg kg-1 i.p., 105 min): 97 + 4%
tumour/whole plasma ratio (s.e., n=5) ([2]; EMT6 flank, experiment b, 650 mg kg-1 i.p., 135 min): 88 + 9%
tumour/whole plasma ratio (% ± s.e.) ([2]; EMT6 i.d. flank, BALB/c, Exp 2 (b): 650 mg kg-1 i.p., 45-135 min, n=20): 79 + 5%
peak tumour level (s.e., n=4) ([2]; EMT6 i.d. flank, first experiment, 650 mg kg-1 i.p. in arachis oil): 55+11 µg g-1
tumour/whole plasma ratio (% ± s.e.) ([2]; EMT6 i.m. leg, BALB/c, Exp 1 (c): 650 mg kg-1 i.p., 45-135 min, n=20): 75 + 5%
tumour/whole plasma ratio (% ± s.e.) ([2]; EMT6 i.m. leg, BALB/c, Exp 2 (d): 650 mg kg-1 i.p., 45-135 min, n=20): 74+6%
peak tumour level (s.e., n=5) ([2]; EMT6 i.m. leg, first experiment, 650 mg kg-1 i.p.): 130+7 µg g-1
peak tumour level (s.e., n=5) ([2]; EMT6 i.m. leg, second experiment, 650 mg kg-1 i.p.): 84+14 µg g-1
tumour/whole plasma ratio (% ± s.e.) ([2]; KHT i.m. leg, C3H/He, Exp 1 (e): 60 mg kg-1 i.p. priming + 15 hourly doses of 15 mg kg-1, 1-16 h, n=25): 99+3%
tumour/whole plasma ratio (% ± s.e.) ([2]; KHT i.m. leg, C3H/He, Exp 2 (f): dosing as e omitting the dose at 1 h, 2-16 h, n=13): 90+ 3%
tumour/whole plasma ratio (s.e., n=5) ([2]; KHT tumour, 1 h after single i.p. dose of 78 mg kg-1): 88+5%
tumour/whole plasma ratio (s.e., n=5) ([2]; KHT tumour, 1 h after single i.p. dose of 260 mg kg-1): 88+2%
steady-state concentration in tumour ([2]; KHT tumour, first experiment): 26 µg/g
steady-state concentration in tumour ([2]; KHT tumour, second experiment): 32 µg/g
range of mean plasma concentrations ([2]; Table II experiment a): 49 to 99 µg/mL
range of mean plasma concentrations ([2]; Table II experiment b): 77 to 121 µg/mL
range of mean plasma concentrations ([2]; Table II experiment c): 100 to 130 µg/mL
range of mean plasma concentrations ([2]; Table II experiment d): 74 to 133 µg/mL
range of mean plasma concentrations ([2]; Table II experiment e (multiple dose)): 25 to 47 µg/mL
range of mean plasma concentrations ([2]; Table II experiment f (multiple dose)): 12 to 29 µg/mL
Kp ([2]; male, BALB/c, mouse, EMT6 flank tumour / whole plasma, EMT6 flank tumours, read-out: overall tissue/whole plasma ratio): 0.69
Kp ([2]; male, mouse, tumour (EMT6, intradermal, intraperitoneal), EMT6 i.d. flank, BALB/c, Exp 1 (a): 650 mg kg-1 i.p. single dose (arachis oil), 45-135 min, n=16, read-out: tumour/whole plasma ratio (% ± s.e.)): 0.59
peak tumour concentration that would be produced ([2]; mice, 13 mg kg-1 i.p.): ~9 µg/g
tumour concentration [2, 8]: 26 µg/g
Kp ([2]; tumour (KHT and EMT6), transplantable mouse tumours (KHT and EMT6), read-out: tissue/whole plasma ratios, range): 0.59 to 0.99
Kp ([2]; tumour / whole plasma, transplantable mouse tumours, read-out: steady-state tumour/whole plasma ratio (about)): ~0.9
fraction unbound (plasma proteins [3]; male, Clun Forest/Border Leicester cross, plasma, iv, sheep 2, 4 mg kg-1 i.v., read-out: protein binding (s.e., n=6) (converted)): 0.58
binding to plasma proteins (plasma proteins [3]; sheep, discussion summary): 42%
peak whole plasma concentration (+2 s.e.) ([4]; BALB/c mice, 26 mg kg-1 i.p.): 18.0+3.7 µg ml-1
i.p. bioavailability (from AUC0-∞) ([4]; BALB/c mice, 50% polyethylene glycol/saline vehicle): 87%
i.p. bioavailability (from AUC0-∞) ([4]; BALB/c mice, dimethyl sulphoxide vehicle): 113%
peak whole plasma concentration (+2 s.e.) ([4]; BALB/c mice, 78 mg kg-1 i.p.): 36.0+2.5 µg ml-1
peak whole plasma concentration (+2 s.e.) ([4]; BALB/c mice, 650 mg kg-1 i.p.): 105+15 µg ml-1
blood/whole plasma concentration ratio, overall mean (s.e., n=16) ([4]; BALB/c mice, 650 mg kg-1 i.p. in arachis oil, 45-135 min): 116+4%
whole plasma concentration remaining at 24 h ([4]; BALB/c mice, 650 mg kg-1 i.p., experiment of Figure 3): 15 µg/mL
half-life ([4]; male, plasma, ip, BALB/c mice, 26 mg kg-1 i.p., suspension in 50% polyethylene glycol, read-out: elimination half-life (95% confidence limits)): 1.55 h
half-life ([4]; male, plasma, ip, BALB/c mice, 68 mg kg-1 (so in the source) i.p., suspension in 50% polyethylene glycol, read-out: elimination half-life (95% confidence limits)): 1.6 h
Tmax ([4]; male, plasma, ip, BALB/c mice, 650 mg kg-1 i.p.): 1 h
Tmax ([4]; male, plasma, ip, BALB/c mice, 26 and 78 mg kg-1 i.p.): 0.25 to 0.5 h
half-life ([4]; male, plasma, iv, BALB/c mice, 32.5 mg kg-1 i.v. in dimethyl sulphoxide, read-out: elimination half-life (95% confidence limits)): 1.98 h
half-life ([4]; male, plasma, iv, BALB/c mice, 65 mg kg-1 i.v. in dimethyl sulphoxide, read-out: elimination half-life (95% confidence limits)): 1.95 h
peak whole plasma concentration that would be produced ([4]; mice, 13 mg kg-1 i.p.): about 10 µg ml-1
whole plasma concentration (dose-peak concentration curve, Figure 4) ([4]; mice, 26 mg kg-1 i.p.): 20 µg/mL
whole plasma concentration [4, 8]: 30 µg/mL
whole plasma concentration (dose-peak concentration curve, Figure 4) ([4]; mice, 650 mg kg-1 i.p.): 90 µg/mL
whole plasma concentration remaining at 24 h ([4]; mice, 650 mg kg-1 i.p., some other experiments (undetectable)): < 0.2 µg/mL
peak whole plasma concentration per administered mg kg-1 ([4]; mice, i.p. route, doses giving linear kinetics): 0.75 micrograms ml-1
half-life ([4]; plasma, mice, summary value, read-out: elimination t1/2): 1.5 h
metabolites detectable by HPLC with u.v. detection at 313 nm ([4]; plasma, urine and tissues of all species studied): no evidence of metabolites
SMILES: O=C(Cn1ccnc1[N+](=O)[O-])NCc1ccccc1 [benznidazole, N-benzyl-(2-nitroimidazolyl) acetamide]
enhancement factor of CCNU response in normal tissues (KHT tumour; [6]): 1.2-1.4
enhancement factor of tumour response to CCNU (KHT tumour; [6]): 1.5-2
i.p. dose giving clear enhancement of KHT tumour response to CCNU (at least as low as) (KHT tumour; ref Workman & Twentyman, 1982): ≤ 13 mg/kg
tolerability [5]: well tolerated
binding (bovine serum albumin): 46%
